Assay results from paper PMC11507932, “Comparative Analysis on Polyphenolic Composition of Different Olive Mill Wastewater and Related Extra Virgin Olive Oil Extracts and Evaluation of Nutraceutical Properties by Cell-Based Studies” (Foods, 2024).
Marks after values point to notes of the source that are not given here.

Columns and labels:
[1] = system: co-culture of Caco-2 and HT29-MTX cell lines; experiment: Intestinal permeability assay, Caco-2/HT29-MTX co-culture, LC-MS quantification; assay type: in vitro ADME, human; conditions: for calculated concentration, basolateral side / calculated concentration, apical side: OMWW B1 sample, mean ± SD (n = 3); for calculated concentration, apical side: apical (100% reference); for Mean Permeation Rate (±SD) at 240 min: polyphenol within OMWW B1 sample (500 µg/mL), apical to basolateral
Description: The instrumental setup consisted of an Agilent (Santa Clara, CA, USA) 1290 UHPLC system, which included a binary pump, a column oven maintained at 40 °C, and a temperature-controlled autosampler. This system was connected to a Sciex (Concord, ON, Canada) QTRAP 6500+ mass spectrometer operating as a triple quadrupole, equipped with an IonDrive™ Turbo V source performing electrospray ionization (ESI). […] The instrument control and data acquisition were performed using Sciex Analyst® version 1.7 software and MultiquantTM software version 3.0.3. Data analysis was carried out using Microsoft 365® Excel software (Albuquerque, NM, USA) and GraphPad (San Diego, CA, USA) Prism version 9.0.2. The mass spectrometry selected reaction monitoring (SRM) method was operated in negative ion mode. For each compound, declustering potential (DP), collision energy (CE), and collision exit potential (CxP) were optimized, and three transitions were considered for analysis. One transition was used for quantification (Q), while the other two were used as qualifiers (q). The transition list and additional operational parameters are already reported. A stock solution of each standard compound, including the internal standard, was prepared in MeOH at a concentration of 100 μg/mL and stored at −20 °C. Calibration curves were freshly prepared in pure LC-MS water. […] [34]. The experiments were performed 21 days after seeding the cells in 12 well plates. During this period, the transepithelial electrical resistance (TEER) was monitored to evaluate the cell monolayer integrity. On the last day, cell monolayers were pre-equilibrated with fresh HBSS (pH 7.4) at 37 °C for 30 min. […] At the same time, the TEER was evaluated, using an EVOM Epithelial Volthometer Instrument equipped with a chopstick electrode (World Precision Instruments, Sarasota, FL, USA). After each sampling time, the basolateral side was replaced with the same HBSS volume. Samples were conserved at −20 °C for subsequent LC/ESI-MS analysis, according to Section 2.5.

[2] = Superoxide radical scavenging assay (NBT reduction); assay type: biochemical; conditions: mean ± SD (n = 3)
Description: The superoxide radical (O2^−) scavenging capacity was spectrophotometrically evaluated, in accordance with Gomes et al.. Absorbance was read at 560 nm for 6 min at 37 °C in a Synergy HT Microplate Reader. The results were expressed as IC50, of the reduction in NBT to a purple-colored diformazan by the reaction with O2.

[3] = Hypochlorous acid scavenging assay (DHR oxidation); assay type: biochemical; conditions: mean ± SD (n = 3)
Description: The uptake capacity of hypochlorous acid (HOCl^−) was determined by monitoring the effect of OMWW extracts in the HOCl^− induced oxidation of dihydrorhodamine (DHR) to rhodamine, as reported by Gomes et al.. The fluorescence was read at 37 °C for 5 min, at wavelengths of 485 ± 20 nm and 528 ± 20 nm. The results were expressed as the inhibition, in IC50, of HOCl^− induced DHR oxidation.

[4] = system: co-culture of Caco-2 and HT29-MTX cell lines; set-up: method as in PMID 37446813; conditions: tyrosol alone, same model; cited from earlier work
[5] = DPPH free radical scavenging assay; assay type: biochemical; conditions: mean ± standard error (n = 3); 45 min, rt
Description: The antiradical activity of OMWW and EVOO samples was assessed by the DPPH free radical scavenging, as reported by Cuffaro et al.. Briefly, 100 μL of DPPH MeOH solution (40.0 μg/mL) was added to 100 μL of the sample solution in MeOH (1 mg/mL to 0.01 mg/mL), and the resulting solution was incubated for 45 min at rt and in the dark. The absorbance was read at 517 nm in a Molecular Devices […] (200-1000 nm) UV/Vis spectrophotometer. Trolox® was the positive control and was treated under the same conditions as the samples. The percent of antioxidant activity (%AA) was calculated according to the following equation:%AA = ([…] = DPPH solution absorbance Abssample = DPPH solution containing the test compound absorbance […] All experiments were performed in triplicate.

[6] = ABTS radical cation scavenging assay; assay type: biochemical; conditions: mean ± standard error (n = 3); 5 min, rt
Description: The ABTS free radical scavenging activity of samples was evaluated by radical cation colorimetric assay in accordance with Cuffaro et al.. Briefly, the ABTS solution (7 mM of aqueous solution of ABTS with 2.45 mM potassium persulfate in a 1:1 ratio) was incubated for 12 h in the dark at rt. Then, the solution was diluted with EtOH to obtain an absorbance of 0.7 at 750 nm. A total of 10 μL of sample solution (1 mg/mL to 0.01 mg/mL) in EtOH was mixed with 180 μL of ABTS solution and the solution was incubated for 5 min at rt. The final absorbance was read at 734 nm in a Molecular Devices […] (200-1000 nm) UV/Vis spectrophotometer. The % scavenging ability was calculated as follows:% scavenging ability = ([…] = ABTS solution absorbance Abssample = ABTS solution containing the test compound absorbance. […] Trolox® was employed as positive control and was treated under the same conditions as the samples. All experiments were performed in triplicate.

SMILES | calculated concentration, basolateral side ([1]; 30 min) | calculated concentration, basolateral side ([1]; 60 min) | calculated concentration, basolateral side ([1]; 120 min) | calculated concentration, basolateral side ([1]; 180 min) | calculated concentration, basolateral side ([1]; 240 min) | calculated concentration, apical side [1] | Mean Permeation Rate (±SD) at 240 min ([1]; 240 min) [%] | Mean Permeation Rate (±SD) at 240 min ([1]; 240 min, listed as caffeic acid) [%] | Mean Permeation Rate (±SD) at 240 min ([1]; 240 min, listed as hydroxytyrosol) [%] | O2^− scavenging IC50 [2] | HOCl^− scavenging IC50 [3] | DPPH IC50 [5] | ABTS IC50 [6] | permeation (release) at 240 min [4] [%]
O=C(O)/C=C/c1ccc(O)c(O)c1 [Caffeic acid] | 0,31 ± 0,10 ng/mL | 0,40 ± 0,25 ng/mL | 1,29 ± 0,31 ng/mL | 2,00 ± 0,01 ng/mL | 1,89 ± 0,42 ng/mL | 7,31 ± 0,74 ng/mL | 26 ± 3 | 26 |  |  |  |  |  | 
O=C(O)c1cc(O)c(O)c(O)c1 [Gallic acid] |  |  |  |  |  |  |  |  |  | 6.34 ± 0.21 ^d μg/mL | 2.60 ± 0.05 ^b μg/mL |  |  | 
O.Oc1cc(O)c2c(c1)O[C@H](c1ccc(O)c(O)c1)[C@@H](O)C2 [Catechin] |  |  |  |  |  |  |  |  |  | 18.01 ± 0.34 ^c,d μg/mL | 0.20 ± 0.01 ^b μg/mL |  |  | 

Further lines, with some results ahead:

calculated concentration, basolateral side ([1]; 30 min) | calculated concentration, basolateral side ([1]; 60 min) | calculated concentration, basolateral side ([1]; 120 min) | calculated concentration, basolateral side ([1]; 180 min) | calculated concentration, basolateral side ([1]; 240 min) | calculated concentration, apical side [1] | Mean Permeation Rate (±SD) at 240 min ([1]; 240 min) [%] | Mean Permeation Rate (±SD) at 240 min ([1]; 240 min, listed as caffeic acid) [%] | Mean Permeation Rate (±SD) at 240 min ([1]; 240 min, listed as hydroxytyrosol) [%] | O2^− scavenging IC50 [2] | HOCl^− scavenging IC50 [3] | DPPH IC50 [5] | ABTS IC50 [6] | SMILES | permeation (release) at 240 min [4] [%]
7,42 ± 5,35 ng/mL | 9,12 ± 5,78 ng/mL | 15,75 ± 5,02 ng/mL | 19,40 ± 2,55 ng/mL | 15,20 ± 1,98 ng/mL | 45,30 ± 0,85 ng/mL | 34 ± 5 |  | 34 |  |  |  |  | OCCc1ccc(O)c(O)c1 [Hydroxytyrosol] | 
155,50 ± 6,36 ng/mL | 224,50 ± 21,92 ng/mL | 259,50 ± 47,38 ng/mL | 256,50 ± 13,44 ng/mL | 314,00 ± 33,94 ng/mL | 587,50 ± 234,05 ng/mL | 59 ± 29 |  |  |  |  |  |  | OCCc1ccc(O)cc1 [Tyrosol] | 78
 |  |  |  |  |  |  |  |  |  |  | 0.007 ± 0.001 ^h mg/mL | 0.003 ± 0.0004 ^i mg/mL | Cc1c(C)c2c(c(C)c1O)CCC(C)(C(=O)O)O2 (stereo not drawn) [Trolox] | 
